Marks after values point to notes of the source that are not given here.
Experiments:
TNF-α = TNF-α concentration in LPS-stimulated HEK-293 cell line; assay type: cell-based; details: HEK-293 cells, LPS 1 μg/mL, 48 hours; for TNF-α concentration, higher dose versus lower dose: crocin 68 μM, nobiletin 65.5 μM; for TNF-α concentration (anti-inflammatory effect): crocin 34 and 68 μM, nobiletin 32.75 and 65.5 μM, vs LPS group
Description: Figure 3. Tumor necrosis factor-alpha (TNF-α) concentration in HEK-293 cells treated with LPS (1 μg/mL) for 48 hours.

rabbit eye = test: Eye irritation test (Draize test) in rabbits' eyes
Description: To assess the ocular toxicity of the two compounds, crocin and nobiletin, an in vivo eye irritation test was conducted. The concentrations evaluated were strategically chosen based on the respective IC50 of each compound. Specifically, the concentrations tested included the IC50 value itself, as well as concentrations at one-half and one-quarter of the IC50 value. This approach allowed for a comprehensive evaluation of the potential eye irritation caused by varying levels of exposure to these compounds. The experimental protocol involved the preparation of stock solutions for crocin and nobiletin using DMSO as the solvent at high concentrations. These stock solutions were then diluted with an artificial tear solution to obtain the desired treatment doses for instillation into the eye conjunctiva of the test subjects. Subsequently, the team meticulously observed and recorded any occurrences of eye symptoms, focusing on the iris, cornea, and conjunctiva over periods of 1, 24, 48, and 72 hours ([18]).

HEK-293 cells = test: MTT cell viability assay; assay type: cell-based; details: Homo sapiens, HEK293, 48-hour treatment
Description: The HEK-293 cell line was acquired from the National Cell Bank of Iran, situated at the Pasteur Institute in Tehran. These cells were propagated in Roswell Park Memorial Institute (RPMI) medium, supplemented with 10% fetal bovine serum (FBS), 100 units/mL penicillin, and 100 μg/mL streptomycin. The culture conditions maintained were a humidified incubator set at 37°C, with 5% CO2 and 95% humid air. The culture medium was replenished twice per week until the cells reached 80 - 90% confluency. Subsequently, the cells were dissociated using trypsin and subcultured for passaging and cryopreservation. All experiments were conducted using cells within the passage number range of 3 - 6. Cells were routinely tested for mycoplasma contamination using Hoechst staining. Briefly, cells were fixed and stained with Hoechst 33258 dye, which binds to DNA. Samples were then examined under a fluorescence microscope for the presence of extranuclear DNA, indicative of mycoplasma infection. All cell cultures used in this study were confirmed to be mycoplasma-negative. […] In this study, (1 × 10^4) Hek-293 cells were seeded per well in 96-well plates. […] The measurement of absorbance was performed at an optical density (OD) of 570 nm. Cell viability was assessed by comparing the absorbance values of the drug-treated cells to those of untreated control cells. […]

CC(/C=C/C=C(\C)C(=O)O[C@@H]1O[C@H](CO[C@@H]2O[C@H](CO)[C@@H](O)[C@H](O)[C@H]2O)[C@@H](O)[C@H](O)[C@H]1O)=C\C=C\C=C(C)\C=C\C=C(/C)C(=O)O[C@@H]1O[C@H](CO[C@@H]2O[C@H](CO)[C@@H](O)[C@H](O)[C@H]2O)[C@@H](O)[C@H](O)[C@H]1O [Crocin]
TNF-α concentration, higher dose versus lower dose (TNF-α): superior anti-inflammatory efficacy compared to their lower-dose counterparts | TNF-α concentration (anti-inflammatory effect) (TNF-α): exhibited anti-inflammatory properties at all tested concentrations | highest safe concentration (rabbit eye; rabbit eye irritation test): 34 ^a µM | ocular observations (rabbit eye; rabbit, in vivo): ocular turbidity was observed, along with mild conjunctival hyperemia | IC50 (HEK-293 cells): 136 µM

COc1ccc(-c2cc(=O)c3c(OC)c(OC)c(OC)c(OC)c3o2)cc1OC [Nobiletin]
TNF-α concentration, higher dose versus lower dose (TNF-α): superior anti-inflammatory efficacy compared to their lower-dose counterparts | TNF-α concentration (anti-inflammatory effect) (TNF-α): exhibited anti-inflammatory properties at all tested concentrations | ocular observations (rabbit eye; rabbit, in vivo): ocular turbidity was observed, along with mild conjunctival hyperemia | highest safe concentration (rabbit eye; rabbit, in vivo, 72 h): 32.75 ^a µM | IC50 (HEK-293 cells): 131 µM
